From ChEMBL document CHEMBL4732103, “Development of Indoleamine 2,3-Dioxygenase 1 Inhibitors for Cancer Therapy and Beyond: A Recent Perspective” (J Med Chem, 2020) come the findings set out here.

Data set [1] concerns the target Indoleamine 2,3-dioxygenase 1 (Mus musculus, UniProt P28776). Kind of data set: Inhibition of mouse IDO1 expressed in mouse P1.HTR cells assessed as inhibition of Kyn production incubated for 16 hrs by HPLC analysis. The format is cell-based.
The target of data set [2] is T1, Indoleamine 2,3-dioxygenase 1 (Homo sapiens, UniProt P14902). The data set is described as follows: Inhibition of recombinant human IDO1 expressed in Escherichia coli BL21(DE3) incubated for 15 mins by Dixon plot analysis.
Data set [3] has as its target Tryptophan 2,3-dioxygenase (Homo sapiens, UniProt P48775). The data set is described as follows: Inhibition of recombinant human TDO expressed in Escherichia coli Rosetta (DE3) pLysS incubated for 20 mins by Dixon plot analysis.
Data set [4] concerns the target T1, Indoleamine 2,3-dioxygenase 1. The data set is described as follows: Binding affinity to recombinant human IDO1 expressed in Escherichia coli BL21 incubated for 4 hrs by UV-Visible Spectroscopy.
Data set [5] shares this target. The data set is described as follows: Inhibition of human IDO1.
Data set [6] shares this target. Kind of data set: Inhibition of IDO1 in human HeLa cells. The format is cell-based.
The subject of the next data set is HEK-293T. The data set is described as follows: Cytotoxicity against HEK293T cells. The format is cell-based. The settings on record: Homo sapiens.
Data set [7] concerns the target T1, Indoleamine 2,3-dioxygenase 1. The data set is described as follows: Inhibition of human IDO1 incubated for 60 mins using L-tryptophan as substrate by absorbance method.
Data set [8] has the same target. Kind of data set: Inhibition of human IDO1 using D-Trp as substrate by absorbance method.
Data set [9] has the same target. Kind of data set: Inhibition of IDO1 in IFN-gamma stimulated human HeLa cells assessed as effect on kynurenine level incubated for 48 hrs by p-dimethylaminobenzaldehyde based assay.
The target is the same in data set [10]. The data set is described as follows: Inhibition of human N-terminal His-tagged IDO1 expressed in Escherichia coli M15 incubated for 1 hr by UV-Vis spectrophotometric method.
Data set [11] shares this target. Kind of data set: Inhibition of human IDO1 in IFN-stimulated human MDA-MB-231 cells preincubated for 48 hrs followed by L-tryptophan addition and measured after 5 hrs by UV-Vis spectrophotometric method. Type of data set: cell-based.
The nature of data set [12]: Cytotoxicity against human HeLa cells incubated for 48 hrs by MTT assay. Type of data set: cell-based. A general note: Formazan colour is commonly taken as a measure of viable cells.
In data set [13] the target is Protein cereblon/Indoleamine 2,3-dioxygenase 1 (Homo sapiens, UniProt P14902+Q96SW2). Kind of data set: Induction of CRBN-mediated IDO1 degradation in IFNgamma-stimulated human HeLa cells incubated for 24 hrs by Western blot analysis.
The target in data set [14] is T1, Indoleamine 2,3-dioxygenase 1. Kind of data set: Inhibition of recombinant human IDO1 expressed in Escherichia coli BL21(DE3) assessed as effect on kynurenine level using L-tryptophan as substrate incubated for 1 hr by Ehrlich's reagent based assay.
The target is the same in data set [15]. Kind of data set: Inhibition of IDO1 in human SK-OV-3 cells assessed as effect on KYN level using L-tryptophan as substrate incubated for 18 hrs by 4-(dimethylamino)benzaldehyde based absorbance method. The format is cell-based.
Data set [16] in a line: Inhibition of IDO1/TDO2 in human BT-549 cells assessed as suppression of kynurenine using L-tryptophan as substrate for 18 hrs by 4-(dimethylamino)benzaldehyde based absorbance method. The format is cell-based. The settings on record: BT-549, 18 h.
The target of data set [17] is T1, Indoleamine 2,3-dioxygenase 1. Kind of data set: Inhibition of IDO1 in IFN-gamma stimulated human HeLa cells centrifuged for 10 mins.
For data set [18] the target is unchanged. The data set is described as follows: Inhibition of IDO1 in IFN-gamma stimulated human HeLa cells assessed as effect on KYN level incubated for 48 hrs by rapidfire-mass spectrometry.
The target is the same in data set [19]. Kind of data set: Inhibition of human 6His/FLAG-tagged/Avi/TEV-fused IDO1 expressed in Escherichia coli by absorbance method.
Data set [20] shares this target. The data set is described as follows: Inhibition of human His6-tagged IDO1 expressed in Escherichia coli BL21 incubated for 90 mins using L-tryptophan as substrate by fluorescence assay.
For data set [21] the target is unchanged. Kind of data set: Inhibition of IDO1 in IFN-gamma stimulated human HeLa cells.
Data set [22] shares this target. Kind of data set: Inhibition of IDO1 (unknown origin) by cell-based assay.
Data set [23] has the same target. The data set is described as follows: Inhibition of IDO1 (unknown origin).

T1 sequence (P14902 whole entry): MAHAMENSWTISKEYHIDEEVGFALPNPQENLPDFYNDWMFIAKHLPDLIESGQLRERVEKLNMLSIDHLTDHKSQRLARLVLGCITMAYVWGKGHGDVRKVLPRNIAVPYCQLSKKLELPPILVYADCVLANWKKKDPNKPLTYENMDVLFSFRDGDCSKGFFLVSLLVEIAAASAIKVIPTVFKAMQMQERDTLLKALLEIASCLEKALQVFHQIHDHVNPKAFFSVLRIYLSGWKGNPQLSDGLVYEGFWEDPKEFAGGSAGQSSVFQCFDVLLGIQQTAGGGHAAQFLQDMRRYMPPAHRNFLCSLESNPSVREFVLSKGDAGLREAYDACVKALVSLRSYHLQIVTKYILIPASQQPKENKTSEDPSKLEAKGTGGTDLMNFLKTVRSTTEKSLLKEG
Tryptophan 2,3-dioxygenase, sequence (P48775 whole entry): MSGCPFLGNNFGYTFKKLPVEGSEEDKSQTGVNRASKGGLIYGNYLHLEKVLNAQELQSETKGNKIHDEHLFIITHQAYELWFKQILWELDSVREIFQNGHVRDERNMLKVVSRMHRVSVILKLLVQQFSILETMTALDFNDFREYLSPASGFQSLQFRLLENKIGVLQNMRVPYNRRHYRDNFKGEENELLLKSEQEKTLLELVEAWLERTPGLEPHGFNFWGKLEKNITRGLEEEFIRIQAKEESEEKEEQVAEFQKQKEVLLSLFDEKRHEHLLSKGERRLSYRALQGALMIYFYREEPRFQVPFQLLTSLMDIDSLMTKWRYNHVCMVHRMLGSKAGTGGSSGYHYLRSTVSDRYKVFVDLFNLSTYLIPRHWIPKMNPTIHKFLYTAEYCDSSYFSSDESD
Protein cereblon/Indoleamine 2,3-dioxygenase 1, sequence (P14902 whole entry): as the sequence (P14902 whole entry) above
Protein cereblon/Indoleamine 2,3-dioxygenase 1, sequence (Q96SW2 whole entry): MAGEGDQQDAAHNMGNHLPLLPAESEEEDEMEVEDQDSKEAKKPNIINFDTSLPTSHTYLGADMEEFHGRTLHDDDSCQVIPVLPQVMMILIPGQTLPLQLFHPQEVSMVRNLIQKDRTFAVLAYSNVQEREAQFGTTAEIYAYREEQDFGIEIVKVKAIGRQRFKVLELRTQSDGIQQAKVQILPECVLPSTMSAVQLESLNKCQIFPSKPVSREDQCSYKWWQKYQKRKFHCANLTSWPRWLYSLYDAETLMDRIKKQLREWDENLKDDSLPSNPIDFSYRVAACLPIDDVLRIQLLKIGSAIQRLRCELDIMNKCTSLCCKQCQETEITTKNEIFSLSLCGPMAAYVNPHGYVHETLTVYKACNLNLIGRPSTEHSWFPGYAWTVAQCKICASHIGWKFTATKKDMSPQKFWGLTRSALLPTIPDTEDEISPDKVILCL
Indoleamine 2,3-dioxygenase 1 (Mus musculus, UniProt P28776), sequence (P28776 whole entry): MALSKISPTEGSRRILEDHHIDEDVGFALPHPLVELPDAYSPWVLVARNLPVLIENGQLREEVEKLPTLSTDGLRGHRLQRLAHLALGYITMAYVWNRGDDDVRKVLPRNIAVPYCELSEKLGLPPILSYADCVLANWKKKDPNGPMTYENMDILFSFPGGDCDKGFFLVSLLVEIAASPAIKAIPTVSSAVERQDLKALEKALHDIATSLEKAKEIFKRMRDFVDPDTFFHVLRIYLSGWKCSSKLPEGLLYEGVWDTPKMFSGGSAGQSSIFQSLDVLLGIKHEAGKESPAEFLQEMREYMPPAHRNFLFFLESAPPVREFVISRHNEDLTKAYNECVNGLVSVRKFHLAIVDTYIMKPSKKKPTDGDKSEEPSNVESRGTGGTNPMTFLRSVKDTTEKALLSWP

For the molecule `Cc1c(C)n(CC(O)CNc2ccccc2)c2ccccc12` (stereo not drawn), in data set [1], the IC50 came out at 11400 nM.

In the case of `O=C(c1ccccc1)C(c1ccccc1)C1(O)C(=O)Nc2c(Cl)cc(Cl)cc21` (stereo not drawn), the Ki in data set [2] is 1000 nM; in [3], 4000 nM.

For the molecule `Clc1ccc(Nc2cn[nH]n2)cc1`, the Kd in data set [4] amounted to 2300 nM.

Turning to `COC1=C(OC)C(=O)C(Nc2cccc(Br)c2)=CC1=O`, the IC50 in data set [5] came to 130 nM; in data set [6], 11200 nM; in the data set on HEK-293T, 28000 nM.

The molecule `O=C(O)C[C@H]1CNC(=S)c2cc(Br)c(Br)n21` showed an IC50 in data set [7] of 92000 nM.

In turn, `O=C1c2nnn(Cc3ccccc3)c2C(=O)c2nnn(Cc3ccccc3)c21` came in with an IC50 in data set [5] of 1 nM.

Consider `O=C(Cc1cccc(N(CCCl)CCCl)c1)NCCNc1nonc1/C(=N/O)Nc1ccc(F)c(Br)c1`, for which, in [8], inhibition was half-maximal at 130 nM (IC50). Besides, in data set [9], the EC50 worked out at 270 nM.

`NC(=O)c1n[nH]nc1-c1ccc(F)c(F)c1` had an IC50 in [10] of 110 nM. Moreover, the response in data set [11] was half-maximal at 74 nM (EC50).

In data set [12], `O=C1CCC(N2C(=O)c3cccc(NCCOCCOCCOCCOCCOCCOCCOCCNCCNc4nonc4/C(=N/O)Nc4ccc(F)c(Br)c4)c3C2=O)C(=O)N1` (stereo not drawn) came in with a CC50 at 48 h of 37400 nM. Besides, half-maximal degradation in data set [13] (DC50) was put at 2840 nM.

For the molecule `C=C1OC2=C(C(=O)c3ccccc3C2=O)C1(C)C`, the IC50 in data set [9] is 1010 nM.

In the case of `N#Cc1ccc(C(F)(F)F)c(SCC(=O)Nc2ccc(F)c(Cl)c2)n1`, the IC50 in data set [14] was 840 nM.

The molecule `NS(=O)(=O)NCCNC(=O)c1n[nH]nc1-c1ccc(F)cc1` displayed an IC50 in data set [10] of 92 nM. The molecule also showed an EC50 in [11] of 74 nM.

Take `CC1=C(CC(=O)c2sccc2C)C(=O)c2ccccc2C1=O`: the IC50 in data set [15] is more than 40000 nM; in data set [16], 3420 nM.

With `CC(C)CN(c1ccc(-c2c(C(=O)O)ccc3ccccc23)cc1NC(=O)Nc1ccc(Br)cc1F)C1CCCCC1`, in data set [17], half-maximal inhibition (IC50) was put at 2.6 nM.

For `CC(C)CN(CC(C)C)c1ccc([C@H](C)CC(=O)O)cc1NCNc1nc(C(F)(F)F)ns1`, the IC50 worked out at 5.9 nM in data set [18] and 39 nM in data set [19].

Molecule `O=C(CSc1nnc2scc(-c3ccccc3)n12)Nc1ccc2c(c1)OCO2` showed an IC50 in [20] of 3000 nM.

In data set [21], `Nc1nonc1/C(=N/O)N1Cc2ccccc2C1` came in with an IC50 of 1570 nM.

In [22], `C[C@@H](NC(=O)c1ccc(F)cc1)c1ccc2c(c1)CCN2C(=O)C1CCOCC1` [LY-3381916] registered an IC50 of 7 nM.

`c1ccc2c(c1)[nH]c1cnccc12` [NORHARMANE]: the affinity in data set [23], expressed as Ki, was 180000 nM.

One may read the IC50 as the concentration that gives 50% inhibition. One may read the Ki as the dissociation constant of the complex between target and ligand, obtained from inhibition or displacement. By Kd is commonly meant the constant that tells how readily two partners part at equilibrium. As usually defined, the EC50 is the concentration needed to bring the measured effect to its halfway point. Usually CC50 stands for the concentration giving 50% cytotoxicity. The low end stands for greater toxicity to the cells, the high end for lower toxicity to the cells. The term DC50 denotes the concentration at which degradation of the target reaches its halfway point. A higher DC50 goes with a less potent degrader.
